Experimental data: US6579882B2, “Cell adhesion-inhibiting antiinflammatory compounds” (Abbott Laboratories, priority 1998, dated 2003)

Key:
E-Selectin = test: CAM ELISA: E-selectin expression on TNF-stimulated HUVECs; type: cell-based; settings: Homo sapiens, Endothelial cell, 1 μM compound; primary human umbilical vein endothelial cells; compound 24 hours, then TNF 5 ng/mL 6 hours
Procedure, shortened: (§1)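 Pooled primary HUVECs (passages 3–7), hydrocortisone-free medium, pretreated 24 h with compound at 37° C, then stimulated with TNF 5 ng/mL for 6 h. Surface VCAM-1, ICAM-1 or E-selectin measured by cell ELISA: specific mouse primary antibody, HRP anti-mouse secondary, OPD development, absorbance at 490 nm.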

ICAM-1 = test: CAM ELISA: ICAM-1 expression on TNF-stimulated HUVECs; type: cell-based; settings: Homo sapiens, Endothelial cell, 1 μM compound; primary human umbilical vein endothelial cells; compound 24 hours, then TNF 5 ng/mL 6 hours
Procedure, shortened: as §1

VCAM-1 = test: CAM ELISA: VCAM-1 expression on TNF-stimulated HUVECs; type: cell-based; settings: Homo sapiens, Endothelial cell, 1 μM compound; primary human umbilical vein endothelial cells; compound 24 hours, then TNF 5 ng/mL 6 hours
Procedure, shortened: as §1

| melting point | Compound | inhibition at 1 µM (E-Selectin) | inhibition at 1 µM (ICAM-1) | inhibition at 1 µM (VCAM-1) |
| --- | --- | --- | --- | --- |
| 243 to 246 °C | Cc1ccc(Sc2ncnc3c(C)c(C(N)=O)sc23)cc1 [Example 16, 7-methyl-4-[(4-methylphenyl)thio]thieno[3,2-d]pyrimidine-6-carboxamide] | 35% | 32% | 19% |
| 195 to 196 °C | NC(=O)/C=C/c1cc2c(Oc3ccc(Br)cc3)cncc2s1 [Example 259, (E)-3-[4-(4-Bromophenoxy)thieno[2,3-c]pyridin-2-yl]propenamide] | 63% | 59% | 57% |
| 198 to 199 °C | NC(=O)c1cc2c(SCc3ccc(Cl)cc3)cncc2s1 [Example 54, 4-[[(4-chlorophenyl)methyl]thio]thieno[2,3-c]pyridine-2-carboxamide] | 74% | 59% | 33% |

The next lines start with the compound.

| Compound | melting point | inhibition at 1 µM (E-Selectin) | inhibition at 1 µM (ICAM-1) | inhibition at 1 µM (VCAM-1) |
| --- | --- | --- | --- | --- |
| FC(F)(F)c1nc(-c2cc3c(Oc4ccc(Cl)cc4)cncc3s2)no1 [Example 284, 4-(4-Chlorophenoxy)-2-[5-(trifluoromethyl)-1,2,4-oxadiazol-3-yl]thieno[2,3-c]pyridine] | 52 to 54 °C | 56% | 68% | 45% |
| NNC(=O)c1cc2c(Oc3ccc(C(F)(F)F)cc3)cncc2s1 [Example 158, 4-[4-(Trifluoromethyl)phenoxy]thieno[2,3-c]pyridine-2-carbohydrazide] | 146 to 147 °C | 61% | 65% | 26% |
| CNc1nnc(-c2cc3c(Oc4ccc(Cl)cc4)cncc3s2)s1 [Example 286, 5-[4-(4-Chlorophenoxy)thieno[2,3-c]pyridin-2-yl]-N-methyl-1,3,4-thiadiazol-2-amine] | 226 to 229 °C | 54% | 64% | 46% |
